In patent US7083982B2, “Helium-neon excitable reticulocyte dyes derivable from halolepidines” (Abbott Laboratories, priority 1996, dated 2006):

Assays:
[1] = Absorption maximum of the dye; assay type: physicochemical; conditions: for absorption maximum in methanol: in methanol solution
Description: The following table sets forth the absorption maximum in nanometers for several dyes suitable for use in this invention.
To the activated 3-ethyl-2-methylbenzothiazolium derivative obtained above (4.5 mg) was added the 7-chloro-1-methyllepidinium salt obtained above (3.8 mg) in chloroform (250 μL) to form a mixture. Then triethylamine (50 μL) was added to the mixture. The resulting mixture was stirred at reflux for 30 minutes, during which time a dark blue solution was obtained. Diethyl ether was added to the solution and the resultant suspension was centrifuged. The supernatant was discarded and the precipitate resuspended in diethyl ether and centrifuged (2 times). The dark powder absorbed maximally at 638 nm in methanol solution.

[2] = system: DNA; assay: Fluorescence of dye with DNA in CD4000 Retic Buffer, flow cytometer with helium-neon laser
Description: (§1) Fluorescence was determined by dissolving the dye in a buffer (“CD4000 Retic Buffer”) at neutral pH and at a final concentration of 0.5 μg/ml of test solution. The “CD4000 Retic Buffer” contained the following ingredients in the amounts indicated: The tests were run in a flow cytometer with a helium-neon laser light source. The helium-neon laser provided light at a wavelength of 630 nm. The optical system was a conventional optical system.

[3] = Fluorescence of dye only in CD4000 Retic Buffer, flow cytometer with helium-neon laser; assay type: physicochemical
Description: as §1

[4] = system: RNA; assay: Fluorescence of dye with RNA in CD4000 Retic Buffer, flow cytometer with helium-neon laser
Description: as §1

[5] = fluorescence relative to dye only intensity 1.0

Row | SMILES | Absorption maximum (nm) [1] | absorption maximum in methanol [1] | further results
1 | CN1C=C/C(=C\C=C\c2oc3ccc4ccccc4c3[n+]2C)c2ccc(Cl)cc21 [Dye 9] | 624 nm | 624 nm | –
2 | CN1C=C/C(=C\C=C\c2sc3ccccc3[n+]2C)c2ccc(Br)cc21 [Dye 5] | 638 nm | – | –
3 | CN1C=C/C(=C\C=C\c2sc3ccccc3[n+]2C)c2ccc(Cl)cc21 [Dye 8] | – | 638 nm | –
4 | CN1C=C/C(=C\C=C\C2=[N+](C)c3ccc4ccccc4c3C2(C)C)c2ccc(Cl)cc21 [Dye 6] | – | 623 nm | –
5 | CN1C=C/C(=C\C=C\c2sc3ccccc3[n+]2C)c2ccc(F)cc21 [Dye 2] | 628 nm | – | –
6 | CC[n+]1c(/C=C/C=C2\C=CN(C)c3cc(Cl)ccc32)sc2ccccc21 [Dye 7] | 638 nm | 638 nm | Bandwidth with DNA ([2]; emission, with DNA): 35; Enhancement with DNA [2, 5]: 50.4; Emission wavelength with DNA (nm) ([2]; with DNA, 0.5 μg/ml, neutral pH, 630 nm laser): 661.8 nm; Emission wavelength - dye only (nm) ([3]; 0.5 μg/ml, neutral pH, 630 nm laser): 655.6 nm; Bandwidth ([3]; emission): 45; Bandwidth with RNA ([4]; emission, with RNA): 36; Enhancement with RNA [4, 5]: 39.1; Emission wavelength with RNA (nm) ([4]; with RNA, 0.5 μg/ml, neutral pH, 630 nm laser): 671.2 nm
